Reference: patent US11976065B2 (CELISTA PHARMACEUTICALS LLC, priority 2020, dated 2024)

Test: pH of the samples in water, pH probe
Type: physicochemical
Details: aqueous sample

With `CC(C)Cn1cnc2c(N)nc3ccccc3c21` [Imiquimod, 1-(2-methylpropyl)-1H-imidazo[4,5-c]quinolin-4-amine] the pH was 7.10.
